Measurements reported in ChEMBL document CHEMBL5390253, “Discovery of Selective and Potent Macrocyclic CDK9 Inhibitors for the Treatment of Osimertinib-Resistant Non-Small-Cell Lung Cancer” (J Med Chem, 2023).
Active and inactive are the calls of the source. The calls are words filed in the database; no cut-off is given here.

Assays:
[1] = target: CDK9/cyclin T1 (Homo sapiens, UniProt P50750); assay: Inhibition of CDK9/Cyclin-T1 (unknown origin) preincubated for 10 mins followed by substrate addition and measured after 60 mins in presence of ATP by ADP-Glo reagent based assay; assay type: protein-complex assay
[2] = Downregulation of Mcl-1 in human NCI-H1975 cells at 500 nM relative to control; assay type: functional
[3] = target: CDK4/Cyclin D3 (Homo sapiens) (UniProt P11802+P30281); assay: Inhibition of CDK4/Cyclin D3 (unknown origin) at 200 nM preincubated for 10 mins followed by substrate addition and measured after 60 mins in presence of ATP by ADP-Glo reagent based assay relative to control; assay type: protein-complex assay; conditions: time 70.0 min
[4] = target: CDK7/Cyclin H/MNAT1 (Homo sapiens) (UniProt P51946+P50613+P51948); assay: Inhibition of CDK7/Cyclin H/MAT1 (unknown origin) at 200 nM preincubated for 10 mins followed by substrate addition and measured after 60 mins in presence of ATP by ADP-Glo reagent based assay relative to control; assay type: protein-complex assay; conditions: time 70.0 min
[5] = target: Cyclin-dependent kinase 5/CDK5 activator 1 (Homo sapiens) (UniProt Q00535+Q15078); assay: Inhibition of CDK5/p25NCK (unknown origin) at 200 nM preincubated for 10 mins followed by substrate addition and measured after 60 mins in presence of ATP by ADP-Glo reagent based assay relative to control; assay type: protein-complex assay; conditions: time 70.0 min
[6] = target: CDK12/Cyclin K (Homo sapiens) (UniProt O75909+Q9NYV4); assay: Inhibition of CDK12/cyclin K (unknown origin) at 200 nM preincubated for 10 mins followed by substrate addition and measured after 60 mins in presence of ATP by ADP-Glo reagent based assay relative to control; assay type: protein-complex assay; conditions: time 70.0 min
[7] = target: CDK18/Cyclin Y (Homo sapiens) (UniProt Q07002+Q8ND76); assay: Inhibition of CDK18/cyclin Y (unknown origin) at 200 nM preincubated for 10 mins followed by substrate addition and measured after 60 mins in presence of ATP by ADP-Glo reagent based assay relative to control; assay type: protein-complex assay; conditions: time 70.0 min
[8] = target: Cyclin-C/Cyclin-dependent kinase 19 (Homo sapiens) (UniProt Q9BWU1+P24863); assay: Inhibition of CDK19/cyclin C (unknown origin) at 200 nM preincubated for 10 mins followed by substrate addition and measured after 60 mins in presence of ATP by ADP-Glo reagent based assay relative to control; assay type: protein-complex assay; conditions: time 70.0 min
[9] = target: Dual specificity protein kinase CLK2 (Homo sapiens) (UniProt P49760); assay: Inhibition of CLK2 (unknown origin) at 100 nM preincubated for 10 mins followed by substrate addition and measured after 60 mins in presence of ATP by ADP-Glo reagent based assay relative to control; conditions: time 70.0 min
[10] = tested on: Epidermal growth factor receptor (Homo sapiens), P00533 [L858R,T790M,C797S]; assay: Inhibition of EGFR T790M/C797S/L858R triple mutant (unknown origin) at 2500 nM preincubated for 10 mins followed by substrate addition and measured after 60 mins in presence of ATP by ADP-Glo reagent based assay relative to control; conditions: time 70.0 min
[11] = tested on: NCI-H596; assay: Antiproliferative activity against human NCI-H596 cells incubated for 72 hrs by MTT assay; assay type: functional, cell-based; conditions: NCI-H596, 72 h
[12] = target: Glycogen synthase kinase-3 beta (Homo sapiens) (UniProt P49841); assay: Inhibition of GSK3beta (unknown origin) at 500 nM preincubated for 10 mins followed by substrate addition and measured after 60 mins in presence of ATP by ADP-Glo reagent based assay relative to control; conditions: time 70.0 min
[13] = target: Cyclin-dependent kinase 2/cyclin E1 (Homo sapiens) (UniProt P24864+P24941); assay: Inhibition of CDK2/cyclin E1 (unknown origin) at 500 nM preincubated for 10 mins followed by substrate addition and measured after 60 mins in presence of ATP by ADP-Glo reagent based assay relative to control; assay type: protein-complex assay; conditions: time 70.0 min
[14] = tested on: NCI-H1975; assay: Downregulation of Mcl-1 mRNA expression in human Osimertinib-resistant NCI-H1975 cell at 0.1 to 1.0 uM measured after 8 hrs by qPCR analysis; assay type: functional, cell-based; conditions: dose 0.1-1 µM
[15] = Antiproliferative activity against human Osimertinib-resistant NCI-H1975 cell assessed as cell growth inhibition incubated for 72 hrs by MTT assay; assay type: functional, cell-based; conditions: NCI-H1975, 72 h
[16] = Antiproliferative activity against human Osimertinib-resistant NCI-H1975 cell assessed as cell growth inhibition incubated for 72 hrs in presence of osimertinib by MTT assay; assay type: functional, cell-based; conditions: NCI-H1975, 72 h
[17] = tested on: NCI-H1975; assay: Downregulation of cleaved PARP level in human Osimertinib-resistant NCI-H1975 cell measured after 16 hrs by Western blot analysis; assay type: functional, cell-based; conditions: dose 125-2000 nM
[18] = Induction of apoptosis in human Osimertinib-resistant NCI-H1975 cell assessed as viable cells at 2000 nM measured after 16 hrs by Annexin V-FITC and PI staining based analysis (reference value: 94.9%); assay type: functional; conditions: read-out: Activity
[19] = Induction of apoptosis in human Osimertinib-resistant NCI-H1975 cell assessed as late apoptotic cells at 125 nM measured after 16 hrs by Annexin V-FITC and PI staining based analysis (Rvb =2.84%); assay type: functional
[20] = Induction of apoptosis in human Osimertinib-resistant NCI-H1975 cell assessed as late apoptotic cells at 2000 nM measured after 16 hrs by Annexin V-FITC and PI staining based analysis (reference value: 2.84%); assay type: functional
[21] = Induction of apoptosis in human Osimertinib-resistant NCI-H1975 cell assessed as necrotic cells at 125 nM measured after 16 hrs by Annexin V-FITC and PI staining based analysis (reference value: 0.50%); assay type: functional
[22] = Induction of apoptosis in human Osimertinib-resistant NCI-H1975 cell assessed as viable cells at 125 nM measured after 16 hrs in presence of osimertinib by Annexin V-FITC and PI staining based analysis (reference value: 94.9%); assay type: functional; conditions: read-out: Activity
[23] = AUC in Sprague-Dawley rat at 2 mg/kg, iv measured upto 24 hrs; assay type: ADME, organism-based; parameters: dose 2 mg/kg, time < 24 hrs, route iv; conditions: in vivo
[24] = Apparent volume of distribution in Sprague-Dawley rat at 2 mg/kg, iv measured upto 24 hrs; assay type: ADME, organism-based; conditions: in vivo, read-out: Vz
[25] = Toxicity in ICR mouse assessed as morphological changes in heart at 1000 mg/kg, po measured after 9 days by H and E staining based analysis; assay type: organism-based; conditions: in vivo, 216 h, time 9 day
[26] = Toxicity in ICR mouse assessed as morphological changes in spleen at 1000 mg/kg, po measured after 9 days by H and E staining based analysis; assay type: organism-based; conditions: in vivo, 216 h, time 9 day
[27] = Toxicity in ICR mouse assessed as morphological changes in kidney at 1000 mg/kg, po measured after 9 days by H and E staining based analysis; assay type: organism-based; conditions: in vivo, 216 h, time 9 day
[28] = Toxicity in ICR mouse assessed as abnormalities in heart at 1000 mg/kg, po measured after 9 days by H and E staining based analysis; assay type: organism-based; conditions: in vivo, 216 h, time 9 day
[29] = Toxicity in ICR mouse assessed as abnormalities in kidney at 1000 mg/kg, po measured after 9 days by H and E staining based analysis; assay type: organism-based; conditions: in vivo, 216 h, time 9 day
[30] = Antitumor activity against patient derived #0416 lung cancer organoid assessed as inhibition of growth measured after 4 days; assay type: functional, tissue-based; conditions: Homo sapiens, 96 h

Sequence of CDK12/Cyclin K (Homo sapiens) (O75909 whole entry, looked up): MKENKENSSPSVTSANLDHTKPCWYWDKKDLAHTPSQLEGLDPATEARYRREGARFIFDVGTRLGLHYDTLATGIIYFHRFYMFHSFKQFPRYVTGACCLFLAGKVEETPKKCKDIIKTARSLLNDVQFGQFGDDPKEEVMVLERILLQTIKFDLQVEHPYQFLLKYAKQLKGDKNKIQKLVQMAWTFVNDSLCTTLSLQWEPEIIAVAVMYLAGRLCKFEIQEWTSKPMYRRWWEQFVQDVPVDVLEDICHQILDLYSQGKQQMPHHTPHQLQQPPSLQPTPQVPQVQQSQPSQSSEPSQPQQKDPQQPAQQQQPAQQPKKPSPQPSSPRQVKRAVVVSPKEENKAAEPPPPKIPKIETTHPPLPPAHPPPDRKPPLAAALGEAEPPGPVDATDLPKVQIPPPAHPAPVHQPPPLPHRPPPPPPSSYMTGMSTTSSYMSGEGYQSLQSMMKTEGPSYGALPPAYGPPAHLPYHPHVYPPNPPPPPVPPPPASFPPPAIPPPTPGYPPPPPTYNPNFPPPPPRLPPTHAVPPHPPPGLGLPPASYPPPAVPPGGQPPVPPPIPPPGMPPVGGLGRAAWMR
Sequence of CDK12/Cyclin K (Homo sapiens) (Q9NYV4 whole entry, looked up): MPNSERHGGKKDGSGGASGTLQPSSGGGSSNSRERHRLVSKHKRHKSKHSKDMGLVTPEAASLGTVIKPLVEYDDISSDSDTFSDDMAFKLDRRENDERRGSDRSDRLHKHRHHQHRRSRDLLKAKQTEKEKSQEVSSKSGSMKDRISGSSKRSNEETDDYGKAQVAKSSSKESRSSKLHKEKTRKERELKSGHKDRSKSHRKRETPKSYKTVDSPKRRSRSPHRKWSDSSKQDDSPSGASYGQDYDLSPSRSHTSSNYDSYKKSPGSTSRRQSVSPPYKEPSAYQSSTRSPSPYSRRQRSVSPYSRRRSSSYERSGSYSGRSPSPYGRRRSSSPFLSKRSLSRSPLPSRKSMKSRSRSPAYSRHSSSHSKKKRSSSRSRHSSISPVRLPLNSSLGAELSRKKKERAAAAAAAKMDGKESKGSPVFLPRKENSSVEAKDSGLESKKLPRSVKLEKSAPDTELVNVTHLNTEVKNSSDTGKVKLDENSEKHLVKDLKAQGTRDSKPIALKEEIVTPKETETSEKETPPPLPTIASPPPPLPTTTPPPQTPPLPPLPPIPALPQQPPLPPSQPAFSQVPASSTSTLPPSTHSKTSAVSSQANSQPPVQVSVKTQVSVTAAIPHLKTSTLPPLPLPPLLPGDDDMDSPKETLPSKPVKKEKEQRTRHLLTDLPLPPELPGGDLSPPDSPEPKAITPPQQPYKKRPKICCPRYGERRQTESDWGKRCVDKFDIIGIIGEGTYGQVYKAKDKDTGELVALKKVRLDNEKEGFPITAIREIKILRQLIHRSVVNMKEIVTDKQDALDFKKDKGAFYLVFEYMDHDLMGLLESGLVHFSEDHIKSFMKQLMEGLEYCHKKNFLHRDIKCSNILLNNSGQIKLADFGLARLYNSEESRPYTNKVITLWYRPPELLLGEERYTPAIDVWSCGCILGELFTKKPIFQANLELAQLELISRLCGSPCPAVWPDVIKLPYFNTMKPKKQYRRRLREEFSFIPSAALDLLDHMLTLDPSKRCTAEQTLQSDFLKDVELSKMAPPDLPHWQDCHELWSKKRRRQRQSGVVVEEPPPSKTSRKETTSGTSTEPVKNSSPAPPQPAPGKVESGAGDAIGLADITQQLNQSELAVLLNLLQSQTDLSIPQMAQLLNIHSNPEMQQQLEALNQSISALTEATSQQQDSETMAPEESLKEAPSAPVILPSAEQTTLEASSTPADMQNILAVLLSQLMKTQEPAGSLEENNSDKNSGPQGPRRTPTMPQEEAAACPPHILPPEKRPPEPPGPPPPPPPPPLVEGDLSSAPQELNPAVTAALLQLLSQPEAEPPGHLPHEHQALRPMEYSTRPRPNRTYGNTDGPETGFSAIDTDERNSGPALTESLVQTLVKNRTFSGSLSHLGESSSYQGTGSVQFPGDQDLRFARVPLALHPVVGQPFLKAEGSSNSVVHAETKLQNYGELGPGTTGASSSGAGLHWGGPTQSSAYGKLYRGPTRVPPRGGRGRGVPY
Sequence of Epidermal growth factor receptor (Homo sapiens), P00533 [L858R,T790M,C797S] (P00533 whole entry T790M/C797S/L858R): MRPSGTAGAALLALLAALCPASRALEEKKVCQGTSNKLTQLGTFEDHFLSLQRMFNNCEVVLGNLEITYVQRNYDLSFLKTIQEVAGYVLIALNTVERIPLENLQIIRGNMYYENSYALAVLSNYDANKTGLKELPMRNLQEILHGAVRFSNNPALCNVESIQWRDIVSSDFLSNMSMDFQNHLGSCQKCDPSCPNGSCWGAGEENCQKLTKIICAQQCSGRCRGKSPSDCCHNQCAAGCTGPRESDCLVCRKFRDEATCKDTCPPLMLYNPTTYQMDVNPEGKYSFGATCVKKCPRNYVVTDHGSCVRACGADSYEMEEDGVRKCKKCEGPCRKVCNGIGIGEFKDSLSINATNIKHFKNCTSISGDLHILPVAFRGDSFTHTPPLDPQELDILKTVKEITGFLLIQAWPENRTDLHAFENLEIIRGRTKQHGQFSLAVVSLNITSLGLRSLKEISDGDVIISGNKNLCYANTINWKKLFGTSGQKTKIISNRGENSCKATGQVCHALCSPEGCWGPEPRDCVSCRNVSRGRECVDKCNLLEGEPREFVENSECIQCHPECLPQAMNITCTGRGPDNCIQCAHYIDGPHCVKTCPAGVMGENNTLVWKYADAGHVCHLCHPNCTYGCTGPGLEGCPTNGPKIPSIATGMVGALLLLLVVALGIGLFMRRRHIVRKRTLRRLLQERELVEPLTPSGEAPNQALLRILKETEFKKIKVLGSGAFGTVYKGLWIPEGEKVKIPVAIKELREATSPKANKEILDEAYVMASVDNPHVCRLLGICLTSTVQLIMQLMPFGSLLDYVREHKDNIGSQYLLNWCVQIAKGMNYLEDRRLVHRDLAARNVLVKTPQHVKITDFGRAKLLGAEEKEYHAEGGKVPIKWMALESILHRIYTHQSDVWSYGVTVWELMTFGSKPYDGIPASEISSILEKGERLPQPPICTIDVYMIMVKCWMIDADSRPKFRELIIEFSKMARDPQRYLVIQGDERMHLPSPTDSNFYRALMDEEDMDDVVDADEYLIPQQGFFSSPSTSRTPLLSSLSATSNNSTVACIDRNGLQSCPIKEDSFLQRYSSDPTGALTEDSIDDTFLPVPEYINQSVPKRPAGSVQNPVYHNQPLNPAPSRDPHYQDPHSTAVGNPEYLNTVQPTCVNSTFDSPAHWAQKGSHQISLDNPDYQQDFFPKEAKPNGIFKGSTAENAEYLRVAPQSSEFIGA
Sequence of CDK9/cyclin T1 (O60563 whole entry): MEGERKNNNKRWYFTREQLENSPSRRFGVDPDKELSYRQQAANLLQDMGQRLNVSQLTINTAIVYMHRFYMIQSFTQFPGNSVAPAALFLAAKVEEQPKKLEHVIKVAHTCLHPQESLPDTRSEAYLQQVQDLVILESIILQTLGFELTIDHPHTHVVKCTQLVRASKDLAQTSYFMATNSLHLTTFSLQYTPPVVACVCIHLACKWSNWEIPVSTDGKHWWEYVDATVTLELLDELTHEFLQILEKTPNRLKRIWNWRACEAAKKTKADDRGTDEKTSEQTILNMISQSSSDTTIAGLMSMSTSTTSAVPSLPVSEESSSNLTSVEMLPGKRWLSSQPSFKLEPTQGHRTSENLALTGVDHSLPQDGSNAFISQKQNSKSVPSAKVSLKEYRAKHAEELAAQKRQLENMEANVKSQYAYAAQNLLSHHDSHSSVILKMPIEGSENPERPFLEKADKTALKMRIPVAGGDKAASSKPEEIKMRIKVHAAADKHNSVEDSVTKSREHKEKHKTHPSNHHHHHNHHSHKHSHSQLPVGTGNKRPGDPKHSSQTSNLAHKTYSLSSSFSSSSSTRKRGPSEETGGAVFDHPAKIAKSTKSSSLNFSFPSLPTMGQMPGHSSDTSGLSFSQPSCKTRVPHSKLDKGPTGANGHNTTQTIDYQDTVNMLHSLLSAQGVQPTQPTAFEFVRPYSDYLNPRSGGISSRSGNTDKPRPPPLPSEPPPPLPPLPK
Sequence of CDK9/cyclin T1 (P50750 whole entry): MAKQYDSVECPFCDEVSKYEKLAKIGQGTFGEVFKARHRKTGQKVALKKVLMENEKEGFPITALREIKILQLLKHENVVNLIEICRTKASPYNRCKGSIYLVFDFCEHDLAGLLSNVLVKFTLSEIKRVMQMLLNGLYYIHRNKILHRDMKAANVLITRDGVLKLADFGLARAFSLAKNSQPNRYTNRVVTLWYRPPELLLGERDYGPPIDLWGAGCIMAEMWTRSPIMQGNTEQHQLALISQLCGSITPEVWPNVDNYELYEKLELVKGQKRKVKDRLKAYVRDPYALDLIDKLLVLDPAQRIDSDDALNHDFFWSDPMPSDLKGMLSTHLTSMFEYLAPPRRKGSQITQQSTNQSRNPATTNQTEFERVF
Sequence of Cyclin-dependent kinase 5/CDK5 activator 1 (Homo sapiens) (Q00535 whole entry): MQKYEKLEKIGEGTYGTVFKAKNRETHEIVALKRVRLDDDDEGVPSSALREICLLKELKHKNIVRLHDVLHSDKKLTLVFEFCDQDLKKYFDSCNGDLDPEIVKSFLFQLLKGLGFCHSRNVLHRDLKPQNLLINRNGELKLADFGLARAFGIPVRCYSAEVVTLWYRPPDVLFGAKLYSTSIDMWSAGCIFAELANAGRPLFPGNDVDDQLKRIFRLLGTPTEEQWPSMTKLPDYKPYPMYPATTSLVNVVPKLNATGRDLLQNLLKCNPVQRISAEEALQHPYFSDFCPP
Sequence of Cyclin-dependent kinase 5/CDK5 activator 1 (Homo sapiens) (Q15078 99-307 partner limits assumed): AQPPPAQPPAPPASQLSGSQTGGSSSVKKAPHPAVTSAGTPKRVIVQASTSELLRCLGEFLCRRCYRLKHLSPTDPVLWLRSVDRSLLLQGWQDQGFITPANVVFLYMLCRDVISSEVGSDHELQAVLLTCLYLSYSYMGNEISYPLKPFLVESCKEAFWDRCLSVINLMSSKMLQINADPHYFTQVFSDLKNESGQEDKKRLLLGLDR

Compound: O=C(NCCN1CCOCC1)c1ccc2cc1OCCCCCCOc1cc(ccc1F)-c1nc(ncc1F)N2
- IC50 [1]: 0.0032 µM
- Activity [2]: 75.6%
- inhibition [3]: 50.1%
- inhibition [4]: 12.8%
- inhibition [5]: 38.9%
- inhibition [6]: 56.4%
- inhibition [7]: 12%
- inhibition [8]: 11.5%
- inhibition [9]: 32.8%
- inhibition [10]: 33.3%
- IC50 [11]: 0.332 µM
- inhibition [12]: 93.9%
- inhibition [13]: 76.1%
- Activity [14]: Active
- IC50 [15]: 0.19 µM
- IC50 [16]: 0.083 µM
- Activity [17]: Dose-Dependent Effect
- viability at 2 µM [18]: 65.5%
- Activity [19]: 3.15%
- Activity [20]: 13.7%
- Activity [21]: 3.25%
- viability at 0.125 µM [22]: 78.3%
- AUC at 24 h [23]: 1080 ng·h/mL
- Vd [24]: 12 L/kg
- Activity [25]: Non-Toxic
- Activity [26]: Non-Toxic
- Activity [27]: Non-Toxic
- Activity [28]: Non-Toxic
- Activity [29]: Non-Toxic
- IC50 [30]: 0.079 µM
